In paper PMC6388989 (Cancer Management and Research, 2019):
Entries after “also recorded” stand apart in the source; their conditions may differ.

Tests used:
[1] = tested on: NCI-H460 cells; format: cell-based, human
[2] = tested on: NCI-H460 cells; format: cell-based, human; remark: listed apart in the source
[3] = tested on: protein markers in NCI-H460 cells; format: cell-based, human; conditions: 48 hours
[4] = tested on: NCI-H460 cells; format: cell-based, human; conditions: 48 hours
[5] = tested on: H460 cells; format: cell-based, human
[6] = tested on: NCI-H460 cells; format: cell-based, human; remark: listed apart in the source
[7] = tested on: 3T3 cells
[8] = tested on: marker genes in NCI-H460 cells; format: cell-based, human; conditions: 48 hours
[9] = tested on: NCI-H460 cells; format: cell-based, human; conditions: 48 hours; remark: listed apart in the source
[10] = tested on: NIH-3T3 cells; conditions: at 50 µM
[11] = tested on: NCI-H460 cells; format: cell-based, human; conditions: 48 hours; remark: listed apart in the source
[12] = tested on: H460 cells; format: cell-based, human; remark: listed apart in the source

## C=C(C)[C@@H]1CC[C@]2(CO)CC[C@]3(C)[C@H](CC[C@@H]4[C@@]5(C)CC[C@H](O)C(C)(C)[C@@H]5CC[C@]43C)[C@@H]12 [Betulin (3), Lup-20 (29)-ene-3, 28-diol]
[1]
  activity against cancer cells compared to normal 3t3 cells: four times more active
[2]
  reduction in wound healing rates of treated vs untreated cells: approximate threefold reduction
[3]
  BCL-2L1 protein expression (immunocytochemistry): marked inhibition
  caspase-3 protein expression (immunofluorescence): significant upregulation
  caspase-6 protein expression (immunofluorescence): significant upregulation
  caspase-8 protein expression (immunofluorescence): decreased with the increase in betulin treatment
  expression of proliferative marker Ki-67: significant inhibition
  osteopontin levels (immunocytochemistry): positively inhibited
[4]
  nuclear morphology: highly condensed nucleus, apoptotic bodies and DNA fragmentation
[5]
  colony formation: completely eradicated cancer cells
[6]
  induction of apoptosis (FACS): significantly underwent apoptosis in a dose-dependent manner
[7]
  morphology of 3T3 cells: regained their normal morphology and started to propagate
[8]
  BAK gene expression: upregulated
  BAX gene expression: upregulated
  BCL-2L1 gene expression: significantly downregulated
  COX-2 gene expression: inhibited
  HRK gene expression: upregulation
  VEGF gene expression: inhibited
  caspase-3 gene expression: significantly upregulated
  caspase-6 gene expression: significantly upregulated
  caspase-8 gene expression: inhibited; also recorded: significantly downregulated
  caspase-9 gene expression: significantly upregulated
  p53 gene expression: significantly downregulated
[9]
  invasive ability of NCI-H460 cells: inhibited in a dose-dependent manner
[10]
  cytotoxicity to normal NIH-3T3 cells: noncytotoxic
[11]
  mitochondrial membrane potential (Δψm): collapse of MMP
[12]
  morphological changes of H460 cells: membrane blebbing and formation of apoptotic bodies
